# Data: patent publication US20210123061A1, “METHODS AND COMPOSITIONS FOR TREATING INFLAMMATORY DISEASE OR DISORDER” (THE BRIGHAM AND WOMEN'S HOSPITAL, INC., priority 2018, published 2021)
# Test system: RXXpS/T, RPS6-pSer235/236, PRAS40-pThr246
# Experiment: Immunoblot of RXXpS/T motif, RPS6 and PRAS40 phosphorylation in macrophages
# Type: cell-based, human
# Procedure: FIGS. 6A-6C show phospho-proteomics identified RSK substrates in human PBMC-derived macrophages. (FIG. 6A) Scheme of phospho-proteomics. Human PBMC-derived macrophages were treated with DMSO or BI-D1870 for two hours followed by IFN-γ stimulation for subsequent proteolysis and phospho-peptide enrichment using the anti-RXXpS/T antibody strategy. (FIG. 6B) Cell lysates were subjected to immunoblot analysis with anti-RPS6-pSer235/236, anti-RPS6, anti-PRAS40-pThr246, anti-PRAS40, or anti-Tubulin. N=2 donors. […] The average shortest distance of the same number of randomly selected genes to disease genes was calculated for N=250 realizations in order to compare the average shortest distance value to random expectation. Empirical p-values were calculated based on 100 degree-preserved randomizations of the first neighbor networks.
# FIGS. 15A-15C show RXXpS/T pattern in human IFN-γ-stimulated macrophages. (FIG. 15A) Human PBBMC-derived macrophages were treated with DMSO or 10 μM BI-D1870 for 2 hours followed by stimulation with IFN-γ for 1 hour. Cell lysates were subjected to immunoblot analysis with anti-RXXpS/T antibody. (FIG. 15B) Four ellipse Venn diagram showing numbers of detected phospho-peptides in each sample. (FIG. 15C) A flow chart of screening for RSK-substrates in human macrophages. We identified 24 candidates including RPS6 and AKT1S1/PRAS40 as RSK-substrates. […]
smiles,measurement,setting,value
CC(C)CCN1c2nc(Nc3cc(F)c(O)c(F)c3)ncc2N(C)C(=O)C1C (centres unmarked) [BI-D1870],anti-RXXpS/T immunoblot signal intensities,"10 μM for 2 hours, then IFN-γ 1 hour",decrease in signal intensities
same,RPS6-pSer235/236 and PRAS40-pThr246 immunoblot,"IFN-γ versus RSK-inhibition, two donors",confirming the changes
